# Reference: patent US6723897B2, “Methods for controlling gibberellin levels” (Monsanto Technology, LLC, priority 1998, dated 2004)
# Several values for one entry are separate records, joined by “and”; a condition that tells them apart may be missing. Equal values may be shown once.
# What was measured:
# [1] = system: pMON29801 soybean lines 719 and 724; experiment: GA3 soil drench, emergence and shoot length of FMV/asCPScc soybean; format: in vivo, Glycine max; conditions: for Plant height (cm): +3 × 10^−6 M GA3 soil drench, 7 days after planting
# Source text: Thirty-five soybean plants are produced by transformation with pMON29801 (FIG. 7) containing the antisense CPS conserved core (asCPScc) gene driven by constitutive FMV promoter. The seed (R1) from the initial R0 transgenic lines is collected. R1 seeds are sown in 4-inch pots filled with commercial potting soil (Metromix 350) that is saturated with water or GA3 at a rate of either 3×10^−6 or 10^−5 M. Typically, 20 seeds are sown in 10 pots for each treatment, except where the seed supply is limiting. Pots are incubated in a greenhouse routinely used for soybean growth. Emergence is scored versus days after planting (DAP). Two soybean lines, 724 and 720, show a delayed emergence phenotype. Line 724 emergence is 1 to 2 days later than the control.
# The timing of emergence and plant stature at for transgenic (plasmid pMON29801, FMV/asCPScc) soybean line 724 is rescued by sowing seeds in soil saturated with 3×10^−6 M GA3. At 7 days after planting (DAP), the GA3 treatment to the seeds rescued plant stature to within 10% of the A3237 control. As an additional control, soybean (A3237) seeds are coated with different concentrations of a commercial formulation of GA3 (Release®) blended with talc and sown in sand saturated with 3 mg/L ancymidol and grown in a greenhouse. Plant height is measured at 6 DAP. […] This rate is equivalent to approximately 62 mg GA3 per acre (assuming 140,000 seeds/acre).
# GA3 added to plasmid pMON29801 transgenic soybean seeds as a soil drench also restores soybean emergence timing and plant height during early seedling growth. Rates of GA3 between 1×10^−6 and 1×10^−5 M, when added to soil either immediately before planting or immediately after, restores normal shoot length in emerged Line #719 seedlings (Table 5).
# [2] = system: pMON29801 soybean line 719; experiment: Foliar GA3 spray, stature of FMV/asCPScc soybean; format: in vivo, Glycine max
# Source text: A foliar spray of GA3 restores normal stature of Line 719 plants. GA3 restores normal vegetative development (Table 6) when sprayed on the foliage of GA-deficient dwarf plants during vegetative development at rates between 10^−4 and 10^−6 M plus a surfactant (Tween 20, 0.05% v/v).
# [3] = system: pMON34439 soybean lines 46 and 202; experiment: GA3 soil drench plus foliar spray on AX5/antisense CPScc seedlings; format: in vivo, Glycine max; conditions: 1×10^−6 M GA3 soil drench before planting plus foliar 1×10^−5 M GA3 spray
# Source text: Two out of 59 transgenic soybean lines transformed with construct pMON34439 (AX5 promoter/antisense CPScc, FIG. 26), lines 46 and 202, show a reduced stature during early seedling growth and then resume normal vegetative growth. Twenty seeds of each line are sown in Metromix 350 soil in 3″ plastic pots in the greenhouse, approximately 40% of the seedlings are reduced in stature for line 46 and 25, 35% for line 202.
# [4] = Concentration of 14C-GA3 in germinating soybean seedlings after seed treatment; format: in vivo, Glycine max
# Source text: Application of ^14C-GA3 to Asgrow 3237 soybeans as a seed treatment via the hilum at a rate (5-20 ppm) within the range effective in rescuing the hypocotyl of dwarf, GA-deficient plants causes a substantial oversupply in the level of GA3 compared to the levels of endogenous bioactive gibberellins GA1 and GA4 in germinating soybean seeds (FIG. 39). The data upon which FIG. 39 is based are taken from the experiment described below in the section entitled “Determination of half-lives and distribution of ^14C-labeled GA compounds in planta”. More particularly, the data in FIG. 39 are taken from the experiment in which ^14C-GA3 is applied to the hilum at 20 ppm.
# The concentration of GA3 in the seedling axis appeared to be directly proportional to the amount of GA3 applied to the seed.
# The details are as follows.
# [5] = system: wild-type soybean variety A4922; experiment: GA3 seed treatment, soybean stand count and yield in the field; format: in vivo, Glycine max
# Source text: Treated seed is planted about 1 inch deep in previously disced soil using a cone planter. The rows are about 30 inches (76.2 cm) apart, and 15 feet (457.2 cm) long. Seeds are spaced about 3 inches (7.62 cm) apart within the rows. The emerged plants are counted periodically, and seed yields are obtained at harvest. The plant counts and yields are converted to a per acre basis. […] The decrease in plant population per acre is due to lack of emergence, in part due to broken and unhooked hypocotyls. In addition, some of the emerged plants are abnormal, e.g., with small, broken cotyledons, etc.
# [6] = Half-lives of 14C-labelled GA compounds in soil; conditions: spinks soil, aerobic, 25° C., darkness; read-out: Half-life (days) in soil (converted)
# Experimental: Metabolic studies in soil are conducted with ^14C-labelled GA compounds in order to investigate the route and rate of compound degradation in soil under aerobic conditions. ^14C-labelled GA compounds are obtained from Lew Mander (Australian National University). The ^14C-labelled compounds dissolved in 0.2-2 ml water:ethanol, 80:20, v/v, are applied to 50-60 gm portions of spinks soil (USDA classification Loamy Sand: 82% sand, 14% silt, and 4% clay) in 250 ml centrifuge bottles at a rate of 0.1-0.2 ppm (6-12 μg; approximately 1,200,000 dpm per soil sample. The soil samples are placed in a glass dessicator which served as a container for all soil bottles. The glass dessicator is connected to three separate trapping solutions in series, each containing 20 ml of ethylene glycol:ethanolamine, 2:1, v/v. Air is pulled into the glass dessicator and through the trapping solutions by house vacuum. The trapping solutions are used to collect ^14C-volatiles and ^14C-CO2. Soil samples are incubated for eight days at 25° C. in darkness. For most experiments, duplicate soil samples are harvested 0, 6, 12, 24, 46, 72, 120, and 192 hours after initial treatment. Soil samples are extracted twice with 100 ml of water:methanol, 20:80, v/v, and the combined extracts are analyzed by HPLC under the same conditions as described for the determination of half-lives of GA compounds in planta, above.
# [7] = 'no GA': single spray treatment at 21 DAP with GA, not further sprayed
# [8] = GA sprayed approximately every week starting at 21 DAP
structure (smiles),measurement,setting,value
"C=C1C[C@]23C[C@@]1(O)CC[C@H]2[C@@]12C=C[C@H](O)[C@@](C)(C(=O)O1)[C@H]2[C@@H]3C(=O)O [GA3, gibberellic acid]",Plant height (cm),[1]; R1 line 719,11.3 (1.0) cm
same,Plant height (cm),[1]; R1 line 724,10.9 (0.9) cm
same,"plant stature, difference from the A3237 control","[1]; line 724, soil saturated with 3×10^−6 M GA3, 7 DAP",≤ 10%
same,"Plant height (cm), 21 DAP",[2]; [7],2.0 cm and 2.5 cm
same,"Plant height (cm), 50 DAP",[2]; [7],13 cm
same,"Plant height (cm), 21 DAP",[2]; [8],2.5 cm
same,"Plant height (cm), 50 DAP",[2]; [8],61 cm and 56 cm
same,normal growth rate of seedlings,[3],at least partially restored
same,GA3 in seedling axis relative to combined endogenous bioactive GAs in untreated tissue,"[4]; 20 ppm, 1 DAP",approximately 100 times higher
same,concentration at 1 day after planting,"[4]; Asgrow 3237, soybean (Glycine max), seedling axis, other: seed treatment applied to the hilum, ^14C-GA3 applied to the hilum at 20 ppm, one day after planting, read-out: calculated concentration of GA3 delivered to the seedling axis",4.31 µM
same,Plants per Acre,[5]; 5 ppm GA3 seed treatment,"41,458"
same,Yield (bushels/acre),[5]; 5 ppm GA3 seed treatment,41.6 bushels/acre
same,Plants per Acre,[5]; 10 ppm GA3 seed treatment,"35,133"
same,Yield (bushels/acre),[5]; 10 ppm GA3 seed treatment,31.9 bushels/acre
same,Plants per Acre,[5]; 15 ppm GA3 seed treatment,"30,566"
same,Yield (bushels/acre),[5]; 15 ppm GA3 seed treatment,31.4 bushels/acre
same,half-life,[6],0.5 days
